{"source": "patent US20220251163A1", "about": "(Sinopep-Allsino Biopharmaceutical Co., Ltd., priority 2019, published 2022)", "key": {"[1]": {"biological_target": "T1, mGLP-1R (Mus musculus, UniProt O35659)", "T1 construct": "expressed in transfected cells; host or cells: HEK293", "T1 sequence (O35659 22-463)": "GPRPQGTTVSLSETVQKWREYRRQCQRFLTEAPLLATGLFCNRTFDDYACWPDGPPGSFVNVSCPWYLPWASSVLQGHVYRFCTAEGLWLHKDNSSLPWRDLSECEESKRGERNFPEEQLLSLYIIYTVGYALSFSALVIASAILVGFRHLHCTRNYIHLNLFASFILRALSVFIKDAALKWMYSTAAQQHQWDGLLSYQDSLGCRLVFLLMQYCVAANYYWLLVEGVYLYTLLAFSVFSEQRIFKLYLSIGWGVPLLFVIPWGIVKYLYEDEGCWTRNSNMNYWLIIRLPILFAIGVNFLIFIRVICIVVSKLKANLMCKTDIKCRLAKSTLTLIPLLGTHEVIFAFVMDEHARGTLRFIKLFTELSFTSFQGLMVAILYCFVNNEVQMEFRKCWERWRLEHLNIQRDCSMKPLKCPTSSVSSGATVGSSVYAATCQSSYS", "test": "GLP-1R agonist activity, cAMP in transfected HEK293 cells", "type": "cell-based"}, "[2]": {"biological_target": "T2, mGIPR (Mus musculus, UniProt Q0P543)", "T2 construct": "expressed in transfected cells; host or cells: HEK293", "T2 sequence (Q0P543 19-460)": "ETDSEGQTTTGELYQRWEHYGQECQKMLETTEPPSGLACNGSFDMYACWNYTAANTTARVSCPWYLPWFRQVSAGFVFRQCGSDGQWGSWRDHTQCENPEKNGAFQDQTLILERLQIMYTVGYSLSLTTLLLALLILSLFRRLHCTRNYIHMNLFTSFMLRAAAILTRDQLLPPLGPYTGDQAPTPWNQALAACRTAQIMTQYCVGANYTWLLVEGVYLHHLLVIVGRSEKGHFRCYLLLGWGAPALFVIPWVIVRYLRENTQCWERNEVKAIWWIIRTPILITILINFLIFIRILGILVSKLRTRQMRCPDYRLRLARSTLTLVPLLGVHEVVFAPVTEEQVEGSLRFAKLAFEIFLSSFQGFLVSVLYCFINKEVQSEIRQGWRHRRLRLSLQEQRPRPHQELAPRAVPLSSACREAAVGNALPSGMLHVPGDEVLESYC", "test": "GIPR agonist activity, cAMP in transfected HEK293 cells", "type": "cell-based", "experimental": "HEK293 cells were co-transfected with cDNA encoding GLP-1R or GIPR. In a test for determining the compound, the cells were inoculated in a 96-well plate 2 h in advance, the polypeptide compound was dissolved with DMSO, and diluted to different multiples with a culture medium containing 0.1% bovine serum albumin and added to the co-transfected cells."}, "[3]": {"system": "ob/ob mice", "test": "Blood glucose reducing experiment, single subcutaneous injection in ob/ob mice;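 also: random blood glucose read at each time point, decrease rate given as percentage fall versus the model control group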", "type": "in vivo", "settings": "100 μg/kg single s.c.", "experimental": "The mice in each group received random blood glucose value measurement before (0 h) administration and 2, 4, 6, 10 and 24 h after administration, and then the time for measuring the random blood glucose was adjusted and prolonged to 34, 48, 58 or 72 h after administration according to the blood glucose condition of the mice in each group. Meanwhile, the random weight of the mice in each group before (0 h) administration and 24 h after administration was weighed, and then the random weight of the mice corresponding to the random blood glucose measurement condition 48 or 72 h after administration was weighed. The blood glucose decrease rate, the blood glucose curve area (AUC0-24 h Glu) within 24 h after administration and the decrease rate were calculated according to the following formula.\nBlood glucose decrease rate=(blood glucose in the model control group−blood glucose in the administration group)/blood glucose in the model control group×100%\nBG0, BG2, BG4, BG6, BG10 and BG24 represented the blood glucose values before administration (0 h) and 2, 4, 6, 10 and 24 h after administration respectively.\nAUC0-24 h Glu(mmol/Lh·r) decrease rate=(model control group AUC0-24 h Glu−administration group AUC0-24 h Glu/model control group AUC0-24 h Glu×100%\nExperiments were carried out twice, at an interval of 8-10 days."}, "[4]": {"test": "Effect on random weight of ob/ob mice after single subcutaneous injection", "type": "in vivo", "settings": "100 μg/kg single s.c., X ± s, n = 7"}, "[5]": {"settings": "HEK293 cells transfected with GLP-1R, cAMP, 20 min incubation, read-out: mGLP-1R EC50"}, "[6]": {"settings": "HEK293 cells transfected with GIPR, cAMP, 20 min incubation, read-out: mGIPR EC50"}}, "note": "Like-named read-outs stand apart in the source and are kept apart here. *1 amine or outer side, *2 acyl side, *3 side chain or, on linkers, in order; H or OH if unused. Where a SMILES comes first, the peptide text is derived from it. Side-chain parts run from the residue outwards. The star is where a group is joined. C18 diacid = O=C(O)CCCCCCCCCCCCCCCCC(=O)*; γGlu = O=C(O)[C@H](CCC(=O)[*:2])N[*:1]; AEEA = NCCOCCOCC(=O)O", "data": [{"molecule": "CC[C@H](C)[C@H](NC(=O)[C@H](CC(C)C)NC(=O)[C@H](Cc1c[nH]c2ccccc12)NC(=O)[C@H](CCC(N)=O)NC(=O)[C@@H](NC(=O)[C@H](Cc1ccccc1)NC(=O)[C@H](C)NC(=O)[C@H](CCCCNC(=O)COCCOCCNC(=O)COCCOCCNC(=O)CC[C@H](NC(=O)CCCCCCCCCCCCCCCCC(=O)O)C(=O)O)NC(=O)[C@H](CCC(N)=O)NC(=O)[C@H](C)NC(=O)[C@@H](NC(=O)[C@H](CCCCN)NC(=O)[C@H](CC(=O)O)NC(=O)[C@H](CC(C)C)NC(=O)C1(NC(=O)[C@@H](NC(=O)[C@H](CO)NC(=O)[C@H](Cc2ccc(O)cc2)NC(=O)[C@H](CC(=O)O)NC(=O)[C@H](CO)NC(=O)[C@@H](NC(=O)[C@H](Cc2ccccc2)NC(=O)[C@@H](NC(=O)CNC(=O)[C@H](CCC(=O)O)NC(=O)C2(NC(=O)[C@@H](N)Cc3ccc(O)cc3)CCCC2)[C@@H](C)O)[C@@H](C)O)[C@@H](C)CC)CCCC1)[C@@H](C)CC)C(C)C)C(=O)N[C@@H](C)C(=O)NCC(=O)NCC(=O)N1CCC[C@H]1C(=O)N[C@@H](CO)C(=O)N[C@@H](CO)C(=O)NCC(=O)N[C@@H](C)C(=O)N1CCC[C@H]1C(=O)N1CCC[C@H]1C(=O)N1CCC[C@H]1C(=O)N[C@@H](CO)C(N)=O", "note": "[ID NO: 3]", "values": [{"measurement": "EC50", "setting": "[1]", "value": 0.00396, "unit": "nM"}, {"measurement": "EC50", "setting": "[2]", "value": 0.00149, "unit": "nM"}]}, {"molecule": "CCCCCCCCCCCCCCCC(=O)N[C@@H](CCC(=O)NCCCC[C@H](NC(=O)[C@H](CCC(N)=O)NC(=O)[C@H](C)NC(=O)[C@@H](NC(=O)[C@H](CCCCN)NC(=O)[C@H](CC(=O)O)NC(=O)[C@H](CC(C)C)NC(=O)[C@H](C)NC(=O)[C@@H](NC(=O)[C@H](CO)NC(=O)[C@H](Cc1ccc(O)cc1)NC(=O)[C@H](CC(=O)O)NC(=O)[C@H](CO)NC(=O)[C@@H](NC(=O)[C@H](Cc1ccccc1)NC(=O)[C@@H](NC(=O)CNC(=O)[C@H](CCC(=O)O)NC(=O)[C@H](C)NC(=O)[C@@H](N)Cc1ccc(O)cc1)[C@@H](C)O)[C@@H](C)O)[C@@H](C)CC)[C@@H](C)CC)C(=O)N[C@@H](C)C(=O)N[C@@H](Cc1ccccc1)C(=O)N[C@H](C(=O)N[C@@H](CCC(N)=O)C(=O)N[C@@H](Cc1c[nH]c2ccccc12)C(=O)N[C@@H](CC(C)C)C(=O)N[C@H](C(=O)N[C@@H](C)C(=O)NCC(=O)NCC(=O)N1CCC[C@H]1C(=O)N[C@@H](CO)C(=O)N[C@@H](CO)C(=O)NCC(=O)N[C@@H](C)C(=O)N1CCC[C@H]1C(=O)N1CCC[C@H]1C(=O)N1CCC[C@H]1C(=O)N[C@@H](CO)C(N)=O)[C@@H](C)CC)C(C)C)C(=O)O", "note": "[ID NO: 15]", "values": [{"measurement": "EC50", "setting": "[1]; [5]", "value": 0.0429, "unit": "nM"}, {"measurement": "EC50", "setting": "[2]; [6]", "value": 0.0532, "unit": "nM"}]}, {"molecule": "CCCCCCCCCCCCCCCC(=O)N[C@@H](CCC(=O)NCCCC[C@H](NC(=O)[C@H](CCC(N)=O)NC(=O)[C@H](C)NC(=O)[C@@H](NC(=O)[C@H](CCCCN)NC(=O)[C@H](CC(=O)O)NC(=O)[C@H](CC(C)C)NC(=O)C(C)(C)NC(=O)[C@@H](NC(=O)[C@H](CO)NC(=O)[C@H](Cc1ccc(O)cc1)NC(=O)[C@H](CC(=O)O)NC(=O)[C@H](CO)NC(=O)[C@@H](NC(=O)[C@H](Cc1ccccc1)NC(=O)[C@@H](NC(=O)CNC(=O)[C@H](CCC(=O)O)NC(=O)[C@H](C)NC(=O)[C@@H](N)Cc1ccc(O)cc1)[C@@H](C)O)[C@@H](C)O)[C@@H](C)CC)[C@@H](C)CC)C(=O)N[C@@H](C)C(=O)N[C@@H](Cc1ccccc1)C(=O)N[C@H](C(=O)N[C@@H](CCC(N)=O)C(=O)N[C@@H](Cc1c[nH]c2ccccc12)C(=O)N[C@@H](CC(C)C)C(=O)N[C@H](C(=O)N[C@@H](C)C(=O)NCC(=O)NCC(=O)N1CCC[C@H]1C(=O)N[C@@H](CO)C(=O)N[C@@H](CO)C(=O)NCC(=O)N[C@@H](C)C(=O)N1CCC[C@H]1C(=O)N1CCC[C@H]1C(=O)N1CCC[C@H]1C(=O)N[C@@H](CO)C(N)=O)[C@@H](C)CC)C(C)C)C(=O)O", "note": "[ID NO: 16] (HELM PEPTIDE1{Y.A.E.G.T.F.T.S.D.Y.S.I.[Aib].L.D.K.I.A.Q.K.A.F.V.Q.W.L.I.A.G.G.P.S.S.G.A.P.P.P.S.[am]}|PEPTIDE2{[CCCCCCCCCCCCCCCC(=O)[*:2]].[gGlu]}$PEPTIDE1,PEPTIDE2,20:R3-2:R2$$$V2.0)", "values": [{"measurement": "EC50", "setting": "[1]; [5]", "value": 0.0425, "unit": "nM"}, {"measurement": "EC50", "setting": "[2]; [6]", "value": 0.00965, "unit": "nM"}]}, {"molecule": "CC[C@H](C)[C@H](NC(=O)[C@H](CC(C)C)NC(=O)[C@H](Cc1c[nH]c2ccccc12)NC(=O)[C@H](CCC(N)=O)NC(=O)[C@@H](NC(=O)[C@H](Cc1ccccc1)NC(=O)[C@H](C)NC(=O)[C@H](CCCCNC(=O)COCCOCCNC(=O)COCCOCCNC(=O)CC[C@H](NC(=O)CCCCCCCCCCCCCCCCC(=O)O)C(=O)O)NC(=O)[C@H](CCC(N)=O)NC(=O)[C@H](C)NC(=O)[C@@H](NC(=O)[C@H](CCCCN)NC(=O)[C@H](CC(=O)O)NC(=O)[C@H](CC(C)C)NC(=O)[C@@H](NC(=O)[C@@H](NC(=O)[C@H](CO)NC(=O)[C@H](Cc1ccc(O)cc1)NC(=O)[C@H](CC(=O)O)NC(=O)[C@H](CO)NC(=O)[C@@H](NC(=O)[C@H](Cc1ccccc1)NC(=O)[C@@H](NC(=O)CNC(=O)[C@H](CCC(=O)O)NC(=O)[C@@H](NC(=O)[C@@H](N)Cc1ccc(O)cc1)C(C)C)[C@@H](C)O)[C@@H](C)O)[C@@H](C)CC)C(C)C)[C@@H](C)CC)C(C)C)C(=O)N[C@@H](C)C(=O)NCC(=O)NCC(=O)N1CCC[C@H]1C(=O)N[C@@H](CO)C(=O)N[C@@H](CO)C(=O)NCC(=O)N[C@@H](C)C(=O)N1CCC[C@H]1C(=O)N1CCC[C@H]1C(=O)N1CCC[C@H]1C(=O)N[C@@H](CO)C(N)=O", "note": "[ID NO: 1] (H-YVEGTFTSDYSIVLDKIAQK([AEEA-AEEA-γGlu-C18 diacid])AFVQWLIAGGPSSGAPPPS-NH2)", "values": [{"measurement": "Blood glucose at different time after administration, 0 h", "setting": "[3]; 0 h (before administration), X ± s, n = 7", "value": "20.31 ± 0.99", "unit": "mmol/L"}, {"measurement": "Decrease rate of blood glucose at different time after administration, 2 h", "setting": "[3]; 2 h", "value": 50.2, "unit": "%"}, {"measurement": "Blood glucose at different time after administration, 2 h", "setting": "[3]; 2 h, X ± s, n = 7", "value": "10.12 ± 0.87", "unit": "mmol/L"}, {"measurement": "Decrease rate of blood glucose at different time after administration, 4 h", "setting": "[3]; 4 h", "value": 51.1, "unit": "%"}, {"measurement": "Blood glucose at different time after administration, 4 h", "setting": "[3]; 4 h, X ± s, n = 7", "value": "9.94 ± 0.86", "unit": "mmol/L"}, {"measurement": "Decrease rate of blood glucose at different time after administration, 6 h", "setting": "[3]; 6 h", "value": 51.6, "unit": "%"}, {"measurement": "Blood glucose at different time after administration, 6 h", "setting": "[3]; 6 h, X ± s, n = 7", "value": "9.83 ± 0.87", "unit": "mmol/L"}, {"measurement": "Decrease rate of blood glucose at different time after administration, 10 h", "setting": "[3]; 10 h", "value": 47.0, "unit": "%"}, {"measurement": "Blood glucose at different time after administration, 10 h", "setting": "[3]; 10 h, X ± s, n = 7", "value": "10.76 ± 1.12", "unit": "mmol/L"}, {"measurement": "Decrease rate of blood glucose at different time after administration, 24 h", "setting": "[3]; 24 h", "value": 41.5, "unit": "%"}, {"measurement": "Blood glucose at different time after administration, 24 h", "setting": "[3]; 24 h, X ± s, n = 7", "value": "11.89 ± 2.12", "unit": "mmol/L"}, {"measurement": "Decrease rate of blood glucose at different time after administration, 34 h", "setting": "[3]; 34 h", "value": 31.4, "unit": "%"}, {"measurement": "Blood glucose at different time after administration, 34 h", "setting": "[3]; 34 h, X ± s, n = 7", "value": "13.93 ± 1.01", "unit": "mmol/L"}, {"measurement": "Decrease rate of blood glucose at different time after administration, 48 h", "setting": "[3]; 48 h", "value": 14.7, "unit": "%"}, {"measurement": "AUC0-24 h Glu", "setting": "[3]; blood glucose curve area within 24 h, X ± s, n = 7", "value": "269.99 ± 19.45", "unit": "mmol·h/L"}, {"measurement": "AUC0-24 h Glu Decrease rate", "setting": "[3]; versus model control group", "value": 47.1, "unit": "%"}, {"measurement": "EC50", "setting": "[1]", "value": 0.0146, "unit": "nM"}, {"measurement": "Changes of random body weight at different time after administration, 0 h", "setting": "[4]; 0 h", "value": "0.0 ± 0.0", "unit": "g"}, {"measurement": "Random body weight at different time after administration, 0 h", "setting": "[4]; 0 h", "value": "43.2 ± 0.5", "unit": "g"}, {"measurement": "Changes of random body weight at different time after administration, 24 h", "setting": "[4]; 24 h", "value": "-1.1 ± 0.2", "unit": "g"}, {"measurement": "Random body weight at different time after administration, 24 h", "setting": "[4]; 24 h", "value": "42.0 ± 0.5", "unit": "g"}, {"measurement": "Changes of random body weight at different time after administration, 48 h", "setting": "[4]; 48 h", "value": "-0.6 ± 0.1", "unit": "g"}, {"measurement": "Random body weight at different time after administration, 48 h", "setting": "[4]; 48 h", "value": "42.7 ± 0.6", "unit": "g"}]}]}
